Assay results from US12233100B1, “Composition for improving respiratory health of companion animals” (priority 2024, dated 2025).

System: IgE
Experiment: IgE content in the serum (ELISA)
Format: in vivo
Conditions: positive control group, 30 mg/kg
Method: In order to measure IgE content in the serum, enzyme-linked immunosorbent assay (ELISA) (an antigen-antibody amount measurement method) kit was used. 100 μl of each of the standard solution and the serum entered each well, was reacted at 4° C. for 10 hours using a rotary agitator and then washed 4 times with a washing solution.
After completely removing the washing solution, 100 μl of a detection antibody entered each well, followed by rotational-agitation at room temperature for 1 hour and then washing the same 4 times with the washing solution. After washing, 100 μl of HRP-Streptavidin (enzyme activity and adsorption protein) solution entered each well, followed by rotational-agitation at room temperature for 45 minutes and then washing the same with 1× washing solution. Further, 100 μl of TMB One-step detection reagent entered each well, followed by rotational-agitation in a dark room for 30 minutes, and then, treatment with 50 μl of a reaction stopping reagent. Then, the absorbance was measured at […], compared to IgE standard curve to convert a content (pg/ml).

Question: How did the “IgE content in the serum” value turn out when `CC(C)(O)c1ccccc1CC[C@@H](SCC1(CC(=O)O)CC1)c1cccc(/C=C/c2ccc3ccc(Cl)cc3n2)c1` [monteluksat, montelukast] was run?
Answer: 347 pg/mL
